Experimental data taken from PMC8193046, “Scaffold fragmentation and substructure hopping reveal potential, robustness, and limits of computer-aided pattern analysis (C@PA)” (Computational and Structural Biotechnology Journal, 2021).

How the values were obtained:
Assay type in all cases: cell-based
[1] = biological target: T1, ABCB1 (Homo sapiens, UniProt P08183); experiment: calcein AM fluorescence accumulation assay, ABCB1-overexpressing A2780/ADR cells; conditions: for activity against ABCB1 in preliminary screening: screened at 10 µM, active = at least 20% (+SEM) of effect of 10 µM compound 2
T1 construct: ABCB1-overexpressing A2780/ADR (30,000 cells/well); host or cells: A2780/ADR
T1 sequence (P08183 whole entry): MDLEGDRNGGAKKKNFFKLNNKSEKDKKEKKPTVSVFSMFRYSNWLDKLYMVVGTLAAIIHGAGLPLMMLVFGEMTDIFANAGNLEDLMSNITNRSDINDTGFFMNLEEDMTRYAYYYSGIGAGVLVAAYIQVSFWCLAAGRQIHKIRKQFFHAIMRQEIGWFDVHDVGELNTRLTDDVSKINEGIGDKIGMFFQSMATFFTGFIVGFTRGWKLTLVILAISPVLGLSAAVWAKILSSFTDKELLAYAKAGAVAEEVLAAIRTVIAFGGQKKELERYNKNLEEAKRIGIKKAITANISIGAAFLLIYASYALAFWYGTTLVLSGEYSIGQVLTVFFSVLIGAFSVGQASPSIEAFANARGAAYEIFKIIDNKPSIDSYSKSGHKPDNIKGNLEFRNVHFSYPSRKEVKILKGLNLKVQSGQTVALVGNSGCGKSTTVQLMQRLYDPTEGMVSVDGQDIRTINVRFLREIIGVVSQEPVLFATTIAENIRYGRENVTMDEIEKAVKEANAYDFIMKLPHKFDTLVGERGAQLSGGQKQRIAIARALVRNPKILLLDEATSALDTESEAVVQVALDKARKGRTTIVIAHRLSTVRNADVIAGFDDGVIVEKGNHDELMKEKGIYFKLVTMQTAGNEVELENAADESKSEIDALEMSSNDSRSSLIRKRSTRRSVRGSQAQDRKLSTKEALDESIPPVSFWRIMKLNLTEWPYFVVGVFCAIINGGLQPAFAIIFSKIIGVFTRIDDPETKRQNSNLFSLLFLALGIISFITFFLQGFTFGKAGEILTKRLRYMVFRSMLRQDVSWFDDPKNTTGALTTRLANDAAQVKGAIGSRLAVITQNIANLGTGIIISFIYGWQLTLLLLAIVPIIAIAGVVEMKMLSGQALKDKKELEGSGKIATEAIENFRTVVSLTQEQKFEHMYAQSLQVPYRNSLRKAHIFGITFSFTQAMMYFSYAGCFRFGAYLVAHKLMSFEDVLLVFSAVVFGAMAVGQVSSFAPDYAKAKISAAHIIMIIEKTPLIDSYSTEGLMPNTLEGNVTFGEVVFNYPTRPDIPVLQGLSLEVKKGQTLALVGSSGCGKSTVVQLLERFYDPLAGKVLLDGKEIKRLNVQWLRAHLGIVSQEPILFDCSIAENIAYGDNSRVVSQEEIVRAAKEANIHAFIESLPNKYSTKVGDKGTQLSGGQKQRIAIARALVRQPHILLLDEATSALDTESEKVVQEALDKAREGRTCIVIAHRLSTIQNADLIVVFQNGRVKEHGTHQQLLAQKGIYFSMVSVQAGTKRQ
Protocol: (§1) Compounds 16–25 were screened at 10 µM in calcein AM (ABCB1 and ABCC1) as well as pheophorbide A (ABCG2) fluorescence accumulation assays using either ABCB1-overexpressing A2780/ADR, ABCC1-overexpressing H69AR, or ABCG2-overexpressing MDCK II BCRP cells, respectively, as reported earlier, [43], [45], [67], [101]. Calcein AM and pheophorbide A are substrates of ABCB1 and ABCC1 as well as ABCG2, respectively, which passively diffuse into the used cells and become extruded by the corresponding ABC transporter. Inhibition of the respective transporter results in the accumulation of these substrates. Calcein AM is subsequently cleaved by intracellular esterases to the fluorescent calcein, while pheophorbide A is already fluorescent. Intracellular fluorescence was determined via microplate reader (calcein AM; ABCB1 and ABCC1) and flow cytometry (pheophorbide A; ABCG2), respectively. Compounds 2 (Fig. 1) and 26–27 (Fig. 5) were used as reference inhibitors against ABCB1, ABCC1, and ABCG2, respectively, as reported before, [101]. Fig. 7 provides the screening results for ABCB1 (A), ABCC1 (B), and ABCG2 (C).
(§2) The ABCB1-overexpressing A2780/ADR cells were delivered by European Collection of Animal Cell Culture (ECACC, no. 93112520) and cultivated using RPMI-1640 medium (PAN-Biotech GmbH, Aidenbach, Germany) complemented with fetal bovine serum (FCS; 10%; PAN-Biotech GmbH, Aidenbach, Germany), streptomycin (50 µg/µL; PAN-Biotech GmbH, Aidenbach, Germany), penicillin G (50 U/mL; PAN-Biotech GmbH, Aidenbach, Germany), as well as L-glutamine (2 mM; PAN-Biotech GmbH, Aidenbach, Germany). The ABCC1-overexpressing H69AR cells were provided by American Type Culture Collection (ATCC CRL-11351), which were cultured with RPMI-1640 medium to which FCS (20%), streptomycin (50 µg/µL), penicillin G (50 U/mL), as well as L-glutamine (2 mM) were added. Dr. A. Schinkel (The Netherlands Cancer Institute, Amsterdam, The Netherlands) generously provided the ABCG2-overexpressing MDCK II BCRP cells, which were cultivated in Dulbecco's modified eagle medium (DMEM; Sigma Life Science, Steinheim, Germany) complemented with FCS (10%), streptomycin (50 µg/µL), penicillin G (50 U/mL), as well as L-glutamine (2 mM). The cell lines were stored in a mixture of 90% cell culture medium and 10% DMSO under liquid nitrogen, while cultivation was performed at 37 °C under 5% CO2-humidified atmosphere. After a confluence of 90% was reached, the cells were harvested using a 0.05%/0.02% trypsin-EDTA solution (PAN-Biotech GmbH, Aidenbach, Germany). […]
(§3) The inhibitory activity against ABCB1 and ABCC1 was evaluated in a calcein AM assay as reported earlier, [67], [101]. […] The incubation period at 37 °C under 5% CO2-humidified atmosphere lasted 30 min before 20 µL of a 3.125 µM calcein AM was added to each well, subsequently followed by measurement of fluorescence increase at an excitation wavelength of 485 nm and an emission wave length of 520 nm in 60 sec intervals for 1 h in either POLARstar and FLUOstar Optima microplate readers (BMG Labtech, software versions 2.00R2/2.20 and 4.11-0; Offenburg, Germany).

[2] = biological target: T2, ABCC1 (Homo sapiens, UniProt P33527); experiment: calcein AM fluorescence accumulation assay, ABCC1-overexpressing H69AR cells; conditions: for activity against ABCC1 in preliminary screening: screened at 10 µM, active = at least 20% (+SEM) of effect of 10 µM compound 26
T2 construct: ABCC1-overexpressing H69AR (60,000 cells/well) cells were added; host or cells: H69AR
T2 sequence (P33527 whole entry): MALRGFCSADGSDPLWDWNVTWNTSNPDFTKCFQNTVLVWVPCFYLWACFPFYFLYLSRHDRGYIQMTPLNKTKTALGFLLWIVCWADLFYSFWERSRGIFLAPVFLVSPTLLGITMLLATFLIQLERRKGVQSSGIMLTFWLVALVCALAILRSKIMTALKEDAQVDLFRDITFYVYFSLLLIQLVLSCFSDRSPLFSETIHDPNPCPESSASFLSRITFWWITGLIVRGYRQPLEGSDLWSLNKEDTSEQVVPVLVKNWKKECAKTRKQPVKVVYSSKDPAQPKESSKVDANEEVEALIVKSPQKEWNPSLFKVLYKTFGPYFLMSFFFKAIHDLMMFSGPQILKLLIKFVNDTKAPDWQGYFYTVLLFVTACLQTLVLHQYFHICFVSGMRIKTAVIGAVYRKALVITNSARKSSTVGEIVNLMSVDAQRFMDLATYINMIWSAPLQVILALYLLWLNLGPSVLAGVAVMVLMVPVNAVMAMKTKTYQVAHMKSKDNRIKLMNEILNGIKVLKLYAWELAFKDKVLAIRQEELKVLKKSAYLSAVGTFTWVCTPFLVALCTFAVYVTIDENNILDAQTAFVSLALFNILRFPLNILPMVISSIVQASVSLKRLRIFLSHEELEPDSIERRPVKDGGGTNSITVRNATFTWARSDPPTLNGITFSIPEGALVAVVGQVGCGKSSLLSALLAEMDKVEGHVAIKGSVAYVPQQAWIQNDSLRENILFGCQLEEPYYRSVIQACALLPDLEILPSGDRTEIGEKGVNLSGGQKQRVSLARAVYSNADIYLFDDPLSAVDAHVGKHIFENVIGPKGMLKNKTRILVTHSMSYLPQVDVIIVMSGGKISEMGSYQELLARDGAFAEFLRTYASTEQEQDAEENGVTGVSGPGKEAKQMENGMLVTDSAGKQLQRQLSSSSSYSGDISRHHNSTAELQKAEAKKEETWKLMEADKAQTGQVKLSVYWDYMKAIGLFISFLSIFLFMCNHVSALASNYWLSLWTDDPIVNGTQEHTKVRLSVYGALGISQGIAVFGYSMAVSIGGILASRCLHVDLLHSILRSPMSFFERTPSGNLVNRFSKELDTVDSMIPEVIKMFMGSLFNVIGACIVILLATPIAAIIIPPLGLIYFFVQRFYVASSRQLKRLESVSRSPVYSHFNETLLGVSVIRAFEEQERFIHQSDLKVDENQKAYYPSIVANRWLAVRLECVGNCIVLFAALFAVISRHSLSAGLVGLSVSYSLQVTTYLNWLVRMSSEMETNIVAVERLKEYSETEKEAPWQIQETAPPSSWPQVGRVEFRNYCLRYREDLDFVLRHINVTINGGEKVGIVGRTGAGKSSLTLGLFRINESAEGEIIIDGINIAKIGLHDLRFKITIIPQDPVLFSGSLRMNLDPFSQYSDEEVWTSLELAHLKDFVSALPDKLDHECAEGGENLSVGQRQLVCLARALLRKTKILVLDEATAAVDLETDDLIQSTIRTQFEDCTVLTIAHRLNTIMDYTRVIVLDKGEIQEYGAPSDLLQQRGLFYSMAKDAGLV
Protocol: as §1
as §2, with “mM).” for “mM). The cell lines were stored in a mixture of 90% cell culture medium and 10% DMSO under liquid nitrogen, while cultivation was performed at 37 °C under 5% CO2-humidified atmosphere. After a confluence of 90% was reached, the cells were harvested using a 0.05%/0.02% trypsin-EDTA solution (PAN-Biotech GmbH, Aidenbach, Germany).”
as §3

[3] = biological target: T3, ABCG2 (Homo sapiens, UniProt Q9UNQ0); experiment: pheophorbide A fluorescence accumulation assay, ABCG2-overexpressing MDCK II BCRP cells
T3 construct: host or cells: MDCK II BCRP
T3 sequence (Q9UNQ0 1-655): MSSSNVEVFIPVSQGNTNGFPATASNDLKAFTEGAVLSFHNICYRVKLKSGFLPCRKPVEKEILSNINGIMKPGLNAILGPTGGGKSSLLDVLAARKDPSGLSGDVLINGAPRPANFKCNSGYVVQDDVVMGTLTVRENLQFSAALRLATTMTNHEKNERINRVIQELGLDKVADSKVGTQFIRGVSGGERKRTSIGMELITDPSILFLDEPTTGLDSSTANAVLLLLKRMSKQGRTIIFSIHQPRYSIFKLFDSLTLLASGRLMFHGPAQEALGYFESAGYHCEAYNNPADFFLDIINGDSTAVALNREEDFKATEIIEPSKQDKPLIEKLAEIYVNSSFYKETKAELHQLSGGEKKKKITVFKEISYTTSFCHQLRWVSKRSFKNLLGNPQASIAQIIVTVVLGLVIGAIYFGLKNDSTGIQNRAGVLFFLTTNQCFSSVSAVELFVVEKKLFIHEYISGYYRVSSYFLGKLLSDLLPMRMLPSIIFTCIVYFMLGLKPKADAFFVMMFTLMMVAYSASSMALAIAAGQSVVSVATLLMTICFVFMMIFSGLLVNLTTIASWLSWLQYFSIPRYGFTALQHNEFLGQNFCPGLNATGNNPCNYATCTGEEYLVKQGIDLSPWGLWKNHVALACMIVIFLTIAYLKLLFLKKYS
Protocol: as §1, with “Fig. 7 provides the screening results for ABCB1 (A), ABCC1 (B), and ABCG2 (C).” left out
The inhibitory activity against ABCG2 was evaluated in a pheophorbide A assay as reported earlier, [67]. […] The effect values of compounds 16–25 were measured via flow cytometry [Guava easyCyte^TM HT, (Merck Millipore, Billerica, MA, USA; excitation: 488 nm; emission: 695/50 nm)] and compared to the effect value of 10 µM of compound 27.

activity against ABCB1 in preliminary screening [1] | activity against ABCC1 in preliminary screening [2] | SMILES | also measured
activities against ABCB1 | inhibited ABCC1 | Cc1onc(-c2ccccc2)c1-c1nnc(CN2CCCC2c2ccc3c(c2)OCCCO3)o1 (centres unmarked) [compound 16, 2-((2-(3,4-dihydro-2H-benzo[b][1,4]dioxepin-7-yl)pyrrolidin-1-yl)methyl)-5-(5-methyl-3-phenyl-isoxazol-4-yl)-1,3,4-oxadiazole] | –
activities against ABCB1 | – | O=C(NC1CCC(OC(=O)c2cncn2-c2ccc(F)cc2)CC1)c1cncn1-c1ccc(F)cc1 (centres unmarked) [compound 17, 4-(1-(4-fluorophenyl)-1H-imidazole-5-carboxamido)cyclohexyl 1-(4-fluorophenyl)-1H-imidazole-5-carboxylate] | –
– | inhibited ABCC1 | O=C(CN1CCN(C(=O)Cn2cnc3scc(-c4cccs4)c3c2=O)CC1)N1CCCCCC1 [compound 18, 3-(2-(4-(2-(azepan-1-yl)-2-oxoethyl)piperazin-1-yl)-2-oxoethyl)-5-(thiophen-2-yl)thieno[2,3-d]pyrimidin-4(3H)-one] | –
activities against ABCB1 | – | O=C(c1cccn1-c1nnc(N2CCCC2)s1)N1CCN(Cc2ccc3c(c2)OCO3)CC1 [compound 19, (4-(benzo[d][1,3]dioxol-5-ylmethyl)piperazin-1-yl)(1-(5-(pyrrolidin-1-yl)-1,3,4-thiadiazol-2-yl)-1H-pyrrol-2-yl)methanone] | –
– | – | Cc1nc(N2CCN(C(=O)C(c3ccccc3)c3ccccc3)CC2)cc(-n2ccnc2)n1 [compound 23, 1-(4-(6-(1H-imidazol-1-yl)-2-methylpyrimidin-4-yl)piperazin-1-yl)-2,2-diphenylethan-1-one] | IC50 ([1]; calcein AM assay, A2780/ADR cells, 100% = 10 µM reference inhibitor 2, read-out: IC50 against ABCB1): 4.01 µM; IC50 ([2]; calcein AM assay, H69AR cells, 100% = 10 µM reference inhibitor 26, read-out: IC50 against ABCC1): 14.8 µM; IC50 ([3]; pheophorbide A assay, MDCK II BCRP cells, 100% = 10 µM reference inhibitor 27, read-out: IC50 against ABCG2): 9.27 µM

SMILES | activity against ABCB1 in preliminary screening [1] | activity against ABCC1 in preliminary screening [2] | also measured
C1=CC2=NC3N4CN(CCCN5CCOCC5)CNC4=NC(c4ccccn4)N3C2C=C1 (centres unmarked) [compound 20, 4-(3-(6-(pyridin-2-yl)-4,6,7a,12a-tetrahydro-1H-benzo[4,5]imidazo[1,2-a][1,3,5]triazino[1,2-c][1,3,5]triazin-2(3H)-yl)propyl)morpholine] | did inhibit neither of the evaluated transporters | did inhibit neither of the evaluated transporters | activity against ABCG2 in preliminary screening ([3]; screened at 10 µM, active = at least 20% (+SEM) of effect of 10 µM compound 27): did inhibit neither of the evaluated transporters
